Assays:
[1] = test system: SF-268; test: DTP human tumor cell line screen, SF-268; type: cell-based; conditions: 100 μM; 48 hours; percent growth of control
Method: (§1) The current assay utilizes a 384 well plate format and fluorescent staining technologies resulting in greater screening capacity for testing of synthetic samples.
(§2) The cell lines of the cancer-screening panel are grown in RPMI 1640 medium containing 5% fetal bovine serum and 2 mM L-glutamine. For a typical screening experiment, cells are inoculated into 96 well microtiter plates in 100 μL. After cell inoculation, the micro-titer plates are incubated at 37° C., 5% CO2, 95% air and 100% relative humidity for 24 h prior to addition of experimental drugs. The cells are plated a densities of 5000 cells/well (MCF7), 1000 cells/well (NCI-H460), and 7500 cells/well (SF-268) to allow for varying doubling time of the cell lines. Each plate contains all three-cell lines, a series of dilutions of standard agents, total kill wells and appropriate controls. Plates are incubated under standard conditions for 24 hours prior to addition of experimental compounds or extracts.
(§3) Experimental compounds are solubilized in dimethyl sulfoxide (DMSO) at 400-times the desired maximum test concentration (maximum final DMSO concentration of 0.25%) and stored frozen. Compounds are then diluted with complete media with 0.1% gentamicin sulfate (5 μl of test sample in 100% DMSO is added to 565 μl of complete medium). 20 μl of this solution is then dispensed into test wells containing 50 μl of cell suspension to yield a test concentration of 1.00E-04M.
(§4) After compound addition, plates are incubated at standard conditions for 48 hours, 10 μl/well Alamar Blue is added and the plates are incubated for an additional 4 hours. Fluorescence is measured using an excitation wavelength of 530 nm and an emission wavelength of 590 nm.
(§5) Percent growth is calculated on a plate-by-plate basis for test wells relative to control wells. Percent Growth is expressed as the ratio of fluorescence of the test well to the average fluorescence of the control wells ×100.

[2] = test system: NCI-H460; test: DTP human tumor cell line screen, NCI-H460; type: cell-based; conditions: 100 μM; 48 hours; percent growth of control
Method: as §1, §2, §3, §4, §5

[3] = test system: TNF-α; test: LPS induced sepsis for measurement of TNF-α inhibition in mice; type: in vivo; conditions: at 50 mg/kg, oral, serum 90 min after LPS
Method: The LPS induced sepsis model in mice was performed as described by Les sekut et al (J Lab Clin Med 1994; 124:813-20). Female Swiss albino mice were selected and the body weights were equivalent within each group. The mice were fasted for 20 hours with free access to water. The mice were dosed orally with the test compound suspended in vehicle containing 0.5% Tween 80 in 0.25% Carboxy-methylcellulose sodium salt. The control mice were administered the vehicle alone. After 30 min of oral dosing, mice were injected with 500 μg of Lipopolysaccharide (Escherichia coli, LPS: B4 from Sigma) in phosphate buffer saline solution into the intraperitoneal cavity of the mice. After 90 min of LPS administration mice were bled via retro-orbital sinus puncture. Blood samples were stored overnight at 4° C. Serum samples were collected by centrifuging the samples at 400 rpm for 15 min at 4° C. Immediately the serum samples were analysed for TNFα levels using commercially available mouse TNF-α ELISA kit (Amersham Biosciences) and assay was performed by the manufacturer instruction.

[4] = target: T1, COX-2 (Homo sapiens, UniProt P35354); test: Human whole blood assay (LPS-induced PGE2, COX-2 inhibition); type: cell-based; conditions: LPS stimulated
T1 construct: Fresh blood was collected in tubes containing sodium heparin by vein puncture from healthy male volunteers; endogenous in cells; host or cells: human whole blood from healthy male volunteers, aspirin-pretreated and LPS-stimulated
T1 sequence (P35354 18-604): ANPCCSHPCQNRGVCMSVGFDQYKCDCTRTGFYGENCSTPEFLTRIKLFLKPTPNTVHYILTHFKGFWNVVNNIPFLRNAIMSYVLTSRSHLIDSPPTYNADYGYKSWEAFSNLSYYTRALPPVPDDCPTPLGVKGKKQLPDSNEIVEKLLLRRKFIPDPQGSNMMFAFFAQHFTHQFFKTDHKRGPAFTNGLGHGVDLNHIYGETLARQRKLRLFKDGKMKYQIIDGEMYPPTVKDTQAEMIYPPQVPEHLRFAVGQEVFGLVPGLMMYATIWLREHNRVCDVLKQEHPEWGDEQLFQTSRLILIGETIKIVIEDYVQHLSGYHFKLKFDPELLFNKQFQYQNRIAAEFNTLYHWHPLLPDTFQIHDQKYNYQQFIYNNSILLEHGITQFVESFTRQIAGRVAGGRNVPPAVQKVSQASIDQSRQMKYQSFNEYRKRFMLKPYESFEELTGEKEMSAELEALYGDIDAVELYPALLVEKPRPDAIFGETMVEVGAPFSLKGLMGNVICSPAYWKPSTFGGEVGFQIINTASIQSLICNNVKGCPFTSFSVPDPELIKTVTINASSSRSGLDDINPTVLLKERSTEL
Method: Human whole blood provides a protein and cell rich milieu appropriate for the study of biochemical efficacy of anti-inflammatory compounds such as selective COX-2 inhibitors. […] This is correlating with the observation that COX-2 inhibitors have no effect on prostaglandin E2 (PGE2) production in normal blood. These inhibitors were active only after incubation of human blood with lipopolysaccharide (LPS), which induces COX-2 production in the blood.
Fresh blood was collected in tubes containing sodium heparin by vein puncture from healthy male volunteers. The subjects should have no apparent inflammatory conditions and not taken NSAIDs for at least 7 days prior to blood collection. Blood was preincubated with aspirin in vitro (12 μg/ml, at time zero) to inactivate COX-1 for 6 hours. Then test compounds (at various concentrations) or vehicle were added to blood. After that blood was stimulated with LPS B:4 (10 μg/ml) and incubated for another 18 h at 37° C. water bath. After which the blood was centrifuged, plasma was separated and stored at −80° C. (J. Pharmacol. Exp. Ther, 271, 1705, 1994; Proc. Natl. Acad. Sci. USA, 96, 7563, 1999). The plasma was assayed for PGE2 using Cayman ELISA kit as per the procedure outlined by the manufacturer (Cayman Chemicals, Ann Arbor, USA).

[5] = Ulcerogenic potential; type: in vivo, rat; conditions: oral; 4 hrs after administration; dose selected 50, 100, 200 mg/kg
Source text: In order to evaluate compound's role on the ulcer formation, the animals were sacrificed and the stomach was taken out and flushed with 1% formalin. Animals (male wistar 200 gm) were fasted for 18 hrs free access to water and the test compounds were suspended in 0.5% Tween 80 and 0.25% CMC (carboxymethylcellulose) solution to make a uniform suspension. After 4 hrs of oral administration of test compounds, all the animals were sacrificed by cervical dislocation. Dissect the stomach carefully and filled up with a sterile saline solution and embedded in 6% formalin solution. […] Compare the test compound treated groups with the vehicle treated groups. Dose selected: 50, 100, 200 mg/kg (Marco Romano et al, Journal of clinical Investigation, 1992; 2409-2421).

CSc1ccc(-c2nc3[nH]nc(N)c3c(=O)n2-c2ccc(C)c(C)c2)cc1 [Example 2, 3-amino-5-(3,4-dimethylphenyl)-6-[4-(methylthio)phenyl]-1,5-dihydro-4H-pyrazolo[3,4-d]pyrimidin-4-one]
% T/C CNS (SF-268) [1]: 39% | melting point: 263 to 266 °C | % T/C Lung (NCI-H460) [2]: 7% | TNF-α Inhibition (%) [3]: 34.29 (at 50 mg/kg) % | inhibition at 0.25 µM ([4]; 0.25 μM): 21.9% | inhibition at 10 µM ([4]; 10 μM): 16.8% | Ulcer Incidence (Number of animals/Total number of animals) [5]: No ulcer

— US20090163521A1, “Novel Pyrazolopyrimidinone Derivatives” (ORCHID RESEARCH LABORATORIES LIMITED, priority 2005, published 2009)
